Paper PMC11277056, “Effects of SRI-32743, a Novel Quinazoline Structure-Based Compound, on HIV-1 Tat and Cocaine Interaction with Norepinephrine Transporter” (International Journal of Molecular Sciences, 2024)

Experiments:
Type in all cases: cell-based
[1] = target: T1, norepinephrine transporter (hNET) (Homo sapiens, UniProt P23975); experiment: [3H]MPP+ preloading and efflux in CHO cells expressing WT hNET
T1 construct: gene SLC6A2; WT hNET

[2] = target: T2, dopamine transporter (hDAT) (Homo sapiens, UniProt Q01959); experiment: [3H]DA uptake inhibition in CHO-K1 cells expressing WT hDAT
T2 construct: gene SLC6A3; WT hDAT

[3] = target: T1, norepinephrine transporter (hNET); experiment: [3H]Nisoxetine competition binding in intact CHO-K1 cells; also [3H]DA uptake inhibition (IC50 […]) and slowed [3H]Nisoxetine dissociation

T1 sequence (P23975 whole entry): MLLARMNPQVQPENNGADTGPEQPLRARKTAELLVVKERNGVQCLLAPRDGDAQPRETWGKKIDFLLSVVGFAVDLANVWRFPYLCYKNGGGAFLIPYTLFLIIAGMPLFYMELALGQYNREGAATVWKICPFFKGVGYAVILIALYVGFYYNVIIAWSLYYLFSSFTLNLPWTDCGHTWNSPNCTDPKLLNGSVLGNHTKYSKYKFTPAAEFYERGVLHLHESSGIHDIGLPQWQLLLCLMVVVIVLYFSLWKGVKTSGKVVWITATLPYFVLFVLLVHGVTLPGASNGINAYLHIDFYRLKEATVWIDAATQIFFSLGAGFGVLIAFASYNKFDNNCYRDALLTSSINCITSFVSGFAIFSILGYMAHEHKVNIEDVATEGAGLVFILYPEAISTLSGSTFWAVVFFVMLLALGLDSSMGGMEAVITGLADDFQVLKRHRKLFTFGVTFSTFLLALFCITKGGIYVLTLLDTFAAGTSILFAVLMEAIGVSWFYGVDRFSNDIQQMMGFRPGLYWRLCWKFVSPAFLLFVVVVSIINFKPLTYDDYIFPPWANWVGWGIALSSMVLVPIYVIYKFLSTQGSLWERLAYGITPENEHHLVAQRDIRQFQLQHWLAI
T2 sequence (Q01959 whole entry): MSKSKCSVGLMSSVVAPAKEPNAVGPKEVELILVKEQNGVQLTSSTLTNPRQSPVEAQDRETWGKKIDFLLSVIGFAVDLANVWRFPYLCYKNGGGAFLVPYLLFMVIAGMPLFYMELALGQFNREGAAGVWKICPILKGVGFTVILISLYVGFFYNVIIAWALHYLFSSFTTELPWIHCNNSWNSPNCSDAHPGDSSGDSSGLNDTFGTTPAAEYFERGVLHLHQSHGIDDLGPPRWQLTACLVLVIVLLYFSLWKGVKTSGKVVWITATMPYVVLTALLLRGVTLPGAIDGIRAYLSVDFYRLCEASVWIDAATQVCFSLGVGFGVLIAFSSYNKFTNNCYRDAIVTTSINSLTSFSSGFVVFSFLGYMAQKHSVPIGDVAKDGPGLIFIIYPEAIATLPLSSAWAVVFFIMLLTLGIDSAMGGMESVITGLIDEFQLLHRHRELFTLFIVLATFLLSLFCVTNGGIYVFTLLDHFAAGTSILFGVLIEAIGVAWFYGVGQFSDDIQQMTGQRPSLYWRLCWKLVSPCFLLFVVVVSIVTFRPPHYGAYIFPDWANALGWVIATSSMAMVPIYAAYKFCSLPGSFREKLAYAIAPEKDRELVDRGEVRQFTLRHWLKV

Row | Compound | [3H]MPP+ preloading and efflux in CHO cells expressing WT hNET [1] | IC50 [2] [µM] | IC50 [3] [µM]
1 | C[n+]1ccc(-c2ccccc2)cc1 [MPP+, N-methyl-4-phenylpyridinium] | decreased both basal [^3H]DA and [^3H]MPP^+ efflux via WT hNET compared with the control |  | 
2 | SRI-32743 |  | 8.16 ± 1.16 | 26.4 ± 5.17
